The structures appear in SMILES notation.

T1 sequence (Q07343 whole entry): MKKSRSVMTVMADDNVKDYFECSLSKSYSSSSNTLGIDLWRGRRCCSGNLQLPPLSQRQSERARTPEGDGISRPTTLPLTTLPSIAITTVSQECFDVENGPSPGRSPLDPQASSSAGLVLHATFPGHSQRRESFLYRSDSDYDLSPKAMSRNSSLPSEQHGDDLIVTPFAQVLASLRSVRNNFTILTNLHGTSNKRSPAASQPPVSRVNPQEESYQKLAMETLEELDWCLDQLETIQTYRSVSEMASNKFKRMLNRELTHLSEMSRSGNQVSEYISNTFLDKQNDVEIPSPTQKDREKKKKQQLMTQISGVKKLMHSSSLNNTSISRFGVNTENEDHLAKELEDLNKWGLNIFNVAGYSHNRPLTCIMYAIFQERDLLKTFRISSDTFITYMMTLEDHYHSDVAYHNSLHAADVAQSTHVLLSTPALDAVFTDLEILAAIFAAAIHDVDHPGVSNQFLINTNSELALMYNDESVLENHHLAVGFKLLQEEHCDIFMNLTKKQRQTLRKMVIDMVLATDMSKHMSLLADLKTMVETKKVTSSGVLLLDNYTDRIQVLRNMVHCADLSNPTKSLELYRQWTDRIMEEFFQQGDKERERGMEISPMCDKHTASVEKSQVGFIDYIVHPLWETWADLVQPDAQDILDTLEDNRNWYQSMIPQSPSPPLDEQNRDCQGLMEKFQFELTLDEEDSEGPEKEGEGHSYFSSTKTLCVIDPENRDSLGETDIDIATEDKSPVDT

The experiment concerns the target T1, PDE 4B (Homo sapiens, UniProt Q07343).
T1 construct: gene PDE4B
The experiment in a line: PDE4B enzyme inhibition assay (according to Schulz et al.). The class given is biochemical.
`COC(=O)c1cccc2nc3c(C(O)C(CCCC(C)C(C)O)C(=O)OC)cccc3nc12` (stereo not drawn) [compound 2, Streptophenazine J] showed an IC50 of 12 µM. Turning to `CCC(C)CCC[C@@H](C(=O)OC)[C@H](O)c1cccc2nc3c(C(=O)O)cccc3nc12` (stereo partly drawn) [compound 3, Streptophenazine K], 12.2 µM corresponded to half-maximal inhibition (IC50). The compound `CCC(C)CCC[C@@H](C(=O)OC)[C@H](O)c1cccc2nc3c(C(=O)OC)cccc3nc12` (stereo partly drawn) [compound 9, Streptophenazine G] yielded an IC50 of 5.2 µM.

Values taken from publication PMC4012441, “Nature’s Lab for Derivatization: New and Revised Structures of a Variety of Streptophenazines Produced by a Sponge-Derived Streptomyces Strain” (Marine Drugs, 2014).
